{"source": "patent US5137920A", "about": "“Method of treating fungal infections” (Hoffmann-La Roche Inc., priority 1989, dated 1992)", "key": {"[1]": {"target": "T1, 2,3-epoxysqualene-lanosterol cyclase (Candida albicans, UniProt Q04782)", "T1 construct": "there was obtained a cell-free extract (CFE) as the supernatant; endogenous in cells; host or cells: Candida albicans culture (cell-free extract, 10000 g supernatant of ruptured protoplasts)", "T1 sequence (Q04782 whole entry)": "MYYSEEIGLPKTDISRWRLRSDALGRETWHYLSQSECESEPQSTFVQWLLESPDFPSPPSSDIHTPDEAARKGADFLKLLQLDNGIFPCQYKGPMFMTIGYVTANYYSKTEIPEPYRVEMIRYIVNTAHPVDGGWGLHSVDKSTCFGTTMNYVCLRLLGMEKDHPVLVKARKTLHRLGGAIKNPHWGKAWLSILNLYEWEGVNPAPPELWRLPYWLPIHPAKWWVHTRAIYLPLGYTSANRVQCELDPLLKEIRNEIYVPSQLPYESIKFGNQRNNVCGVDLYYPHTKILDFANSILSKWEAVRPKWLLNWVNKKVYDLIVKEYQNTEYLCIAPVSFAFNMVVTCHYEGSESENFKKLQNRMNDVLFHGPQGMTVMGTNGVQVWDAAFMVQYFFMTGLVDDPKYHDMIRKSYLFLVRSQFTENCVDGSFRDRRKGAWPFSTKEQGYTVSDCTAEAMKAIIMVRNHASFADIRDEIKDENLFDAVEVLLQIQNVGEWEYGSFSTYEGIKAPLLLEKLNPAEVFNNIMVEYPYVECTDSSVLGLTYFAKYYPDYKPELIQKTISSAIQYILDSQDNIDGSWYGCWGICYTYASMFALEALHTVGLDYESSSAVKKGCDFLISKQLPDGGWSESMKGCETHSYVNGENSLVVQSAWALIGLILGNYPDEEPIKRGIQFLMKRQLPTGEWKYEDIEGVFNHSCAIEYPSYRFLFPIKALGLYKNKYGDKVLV", "test": "Inhibition of 2,3-epoxysqualene-lanosterol cyclase from Candida albicans (14C-squalene epoxide, cell-free extract)", "type": "biochemical"}, "Candida albicans": {"test_system": "Candida albicans", "test": "Agar dilution method, application alone and in combination with ketoconazole (synergistic activity)", "type": "cell-based", "details": "for MIC: Candida albicans, 48 h, casitone agar, 37° C., 2 days; for FIC (fractional inhibitory concentration): Compound 1 + ketoconazole, synergistic if <0.5"}, "[2]": {"test": "Acute toxicity in the case of subcutaneous administration to mice", "details": "mouse, in vivo, sc", "method": "The IC50 values were determined graphically and are given in μg of test substance per ml. Table I contains IC50 values determined in the above test for representative members of the class of compound defined by formula I as well as data concerning the acute toxicity in the case of subcutaneous administration to mice (LD50 in mg/kg)."}, "[3]": {"details": "C. albicans cell-free extract, pH 6.9, 30°, 1 hour, read-out: IC50 (converted)"}}, "note": "Structures can show the parent of a compound that is named as a salt. Where two headings read alike, the source gives them in different places."}
{"smiles": "Cc1ccccc1C(=O)c1ccc(CCCCCCN(C)C)cc1", "note": "[Compound 27, 4-[6-(Dimethylamino)hexyl]-2'-methylbenzophenone]", "values": [{"measurement": "IC50", "setting": "[1]; [3]", "result": 495, "unit": "nM"}]}
{"smiles": "CN(C)CCCc1ccc(C(=O)CCc2ccc([N+](=O)[O-])cc2)cc1", "note": "[Compound 11]", "values": [{"measurement": "IC50", "setting": "[1]; [3]", "result": 823, "unit": "nM"}]}
{"smiles": "C=CCN(C)CCCCCCCc1ccc(C(=O)c2ccc(Br)cc2)cc1", "note": "[Compound 22, 4-[7-(Allylmethylamino)heptyl]-4'-bromobenzophenone]", "values": [{"measurement": "IC50", "setting": "[1]", "result": 443, "unit": "nM"}]}
{"smiles": "CN(C)CCCCCCc1ccc(C(=O)c2ccc([N+](=O)[O-])cc2)cc1", "note": "[Compound 28, 4-[6-(Dimethylamino)hexyl]-4'-nitrobenzophenone]", "values": [{"measurement": "IC50", "setting": "[1]; [3]", "result": 592, "unit": "nM"}]}
{"smiles": "CN(C)CCCCCCCCc1ccc(C(=O)c2ccccc2)cc1", "note": "[Compound 16, 4-[8-(Dimethylamino)octyl]benzophenone]", "values": [{"measurement": "IC50", "setting": "[1]; [3]", "result": 415, "unit": "nM"}]}
{"smiles": "CN(C)CCCc1ccc(C(=O)CCc2ccc(Cl)cc2)cc1", "note": "[Compound 7, 3-(4-chlorophenyl)-4'-[3-(dimethylamino)propyl]propiophenone hydrochloride]", "values": [{"measurement": "IC50", "setting": "[1]; [3]", "result": 1090, "unit": "nM"}]}
{"smiles": "CN(C)CCCCCCCc1ccc(C(=O)c2ccc(Br)cc2)cc1", "note": "[Compound 18, 4-Bromo-4'-[7-(dimethylamino)heptyl]benzophenone]", "values": [{"measurement": "IC50", "setting": "[1]; [3]", "result": 2140, "unit": "nM"}]}
{"smiles": "CN(C)CCCCCCCCc1ccc(C(=O)c2ccccc2)cc1", "note": "[Compound 15]", "values": [{"measurement": "IC50", "setting": "[1]; [3]", "result": 1210, "unit": "nM"}]}
{"smiles": "CN(C)CCCCCCCc1ccc(C(=O)c2ccc(Cl)cc2Cl)cc1", "note": "[Compound 19, 2,4-Dichloro-4'-[7-(dimethylamino)heptyl]benzophenone]", "values": [{"measurement": "IC50", "setting": "[1]; [3]", "result": 1910, "unit": "nM"}]}
{"smiles": "CN(C)CCCc1ccc(C(=O)c2ccccc2)cc1", "note": "[Compound 14]", "values": [{"measurement": "IC50", "setting": "[1]; [3]", "result": 18700, "unit": "nM"}]}
{"smiles": "CN(C)CCCCCCc1ccc(C(=O)c2cccc(Br)c2)cc1", "note": "[Compound 26, 3-Bromo-4'-[6-(dimethylamino)hexyl]benzophenone]", "values": [{"measurement": "IC50", "setting": "[1]; [3]", "result": 1080, "unit": "nM"}]}
{"smiles": "CN(C)CCCCCCCc1ccc(C(=O)Cc2ccccc2)cc1", "note": "[Compound 2, 4'-[7-(dimethylamino)heptyl]-2-phenylacetophenone]", "values": [{"measurement": "IC50", "setting": "[1]; [3]", "result": 1420, "unit": "nM"}]}
{"smiles": "CN(C)CCCCCCc1ccc(C(=O)c2ccccc2Cl)cc1", "note": "[Compound 29, 2-Chloro-4'-[6-(dimethylamino)hexyl]benzophenone]", "values": [{"measurement": "IC50", "setting": "[1]; [3]", "result": 320, "unit": "nM"}]}
{"smiles": "CN(C)CCCc1ccc(C(=O)CCc2ccc(F)cc2)cc1", "note": "[Compound 8, 3-(4-fluorophenyl)-4'-[3-(dimethylamino)propyl]propiophenone]", "values": [{"measurement": "IC50", "setting": "[1]; [3]", "result": 1750, "unit": "nM"}]}
{"smiles": "CN(C)CCCCCCCc1ccc(C(=O)c2ccc(F)cc2)cc1", "note": "[Compound 3, 4'-fluoro-4-[7-(dimethylamino)heptyl]benzophenone]", "values": [{"measurement": "IC50", "setting": "[1]; [3]", "result": 1230, "unit": "nM"}]}
{"smiles": "C=CCN(C)CCCCCCCc1ccc(C(=O)c2ccccc2)cc1", "note": "[Compound 21, 4-[7-(Allylmethylamino)heptyl]benzophenone]", "values": [{"measurement": "IC50", "setting": "[1]", "result": 143, "unit": "nM"}]}
{"smiles": "Cc1ccccc1CCC(=O)c1ccc(CCCN(C)C)cc1", "note": "[Compound 9, 3-(2-methylphenyl)-4'-[3-(dimethylamino)propyl]propiophenone]", "values": [{"measurement": "IC50", "setting": "[1]; [3]", "result": 355, "unit": "nM"}]}
{"smiles": "CN(C)CCCCCCCc1ccc(C(=O)c2ccc(C(F)(F)F)cc2)cc1", "note": "[Compound 4, 4-[7-(dimethylamino)heptyl]-4'-(trifluoromethyl)benzophenone]", "values": [{"measurement": "IC50", "setting": "[1]; [3]", "result": 3450, "unit": "nM"}]}
{"smiles": "O=C(CCc1ccccc1)c1ccc(CCCN2CCCC2)cc1", "note": "[Compound 13, 3-phenyl-4'-[3-(1-pyrrolidinyl)propyl]propiophenone]", "values": [{"measurement": "IC50", "setting": "[1]; [3]", "result": 1240, "unit": "nM"}]}
{"smiles": "CN(C)CCCCCCCc1ccc(C(=O)c2ccc(Cl)cc2)cc1", "note": "[Compound 17, 4-chloro-4'-[7-(dimethylamino)heptyl]benzophenone]", "values": [{"measurement": "IC50", "setting": "[1]; [3]", "result": 1370, "unit": "nM"}]}
{"smiles": "CN(C)CCCCCCc1ccc(C(=O)c2ccc(Br)cc2)cc1", "note": "[Compound 25, 4-Bromo-4'-[6-(dimethylamino)hexyl]benzophenone hydrochloride]", "values": [{"measurement": "IC50", "setting": "[1]; [3]", "result": 2170, "unit": "nM"}]}
{"smiles": "CN(C)CCCc1ccc(C(=O)CCc2cccc(Cl)c2)cc1", "note": "[Compound 10, 3-(3-chlorophenyl)-4'-[3-(dimethylamino)propyl]propiophenone]", "values": [{"measurement": "IC50", "setting": "[1]; [3]", "result": 1330, "unit": "nM"}]}
{"smiles": "CN(C)CCCCCCCc1ccc(C(=O)c2ccc(F)cc2F)cc1", "note": "[Compound 5, 2,4-difluoro-4'-[7-(dimethylamino)heptyl]benzophenone]", "values": [{"measurement": "IC50", "setting": "[1]; [3]", "result": 1530, "unit": "nM"}]}
{"smiles": "CC(=O)N1CCN(c2ccc(OCC3COC(Cn4ccnc4)(c4ccc(Cl)cc4Cl)O3)cc2)CC1", "note": "(stereo not drawn) [Ketoconazole, reference compound]", "values": [{"measurement": "MIC in combination", "setting": "Candida albicans; C. albicans B4, Ketoconazole in combination with Compound 1", "result": 0.15, "unit": "µg/mL"}, {"measurement": "MIC in combination", "setting": "Candida albicans; C. albicans B5, Ketoconazole in combination with Compound 1", "result": 0.075, "unit": "µg/mL"}, {"measurement": "MIC in combination", "setting": "Candida albicans; C. albicans H12, Ketoconazole in combination with Compound 1", "result": 0.3, "unit": "µg/mL"}, {"measurement": "MIC in combination", "setting": "Candida albicans; C. albicans H29, Ketoconazole in combination with Compound 1", "result": 0.075, "unit": "µg/mL"}, {"measurement": "MIC in combination", "setting": "Candida albicans; C. albicans H42, Ketoconazole in combination with Compound 1", "result": 0.15, "unit": "µg/mL"}, {"measurement": "MIC", "setting": "Candida albicans; C. albicans B4, Ketoconazole alone", "result": 2.5, "unit": "µg/mL"}, {"measurement": "MIC", "setting": "Candida albicans; C. albicans B5, Ketoconazole alone", "result": 0.15, "unit": "µg/mL"}, {"measurement": "MIC", "setting": "Candida albicans; C. albicans H12, Ketoconazole alone", "result": 5, "unit": "µg/mL"}, {"measurement": "MIC", "setting": "Candida albicans; C. albicans H29, Ketoconazole alone", "result": 1.29, "unit": "µg/mL"}, {"measurement": "MIC", "setting": "Candida albicans; C. albicans H42, Ketoconazole alone", "result": 5, "unit": "µg/mL"}]}
{"smiles": "CN(C)CCCCCCCc1ccc(C(=O)c2ccccc2)cc1", "note": "[Compound 1, 4-[7-(dimethylamino)heptyl]benzophenone]", "values": [{"measurement": "IC50", "setting": "[1]", "result": 526, "unit": "nM"}, {"measurement": "FIC (fractional inhibitory concentration)", "setting": "Candida albicans; C. albicans B4", "result": 0.06}, {"measurement": "MIC in combination", "setting": "Candida albicans; C. albicans B4, Compound 1 in combination with ketoconazole", "result": 1.2, "unit": "µg/mL"}, {"measurement": "FIC (fractional inhibitory concentration)", "setting": "Candida albicans; C. albicans B5", "result": 0.53}, {"measurement": "MIC in combination", "setting": "Candida albicans; C. albicans B5, Compound 1 in combination with ketoconazole", "result": 1.2, "unit": "µg/mL"}, {"measurement": "FIC (fractional inhibitory concentration)", "setting": "Candida albicans; C. albicans H12", "result": 0.19}, {"measurement": "MIC in combination", "setting": "Candida albicans; C. albicans H12, Compound 1 in combination with ketoconazole", "result": 2.5, "unit": "µg/mL"}, {"measurement": "FIC (fractional inhibitory concentration)", "setting": "Candida albicans; C. albicans H29", "result": 0.19}, {"measurement": "MIC in combination", "setting": "Candida albicans; C. albicans H29, Compound 1 in combination with ketoconazole", "result": 1.2, "unit": "µg/mL"}, {"measurement": "FIC (fractional inhibitory concentration)", "setting": "Candida albicans; C. albicans H42", "result": 0.005}, {"measurement": "MIC in combination", "setting": "Candida albicans; C. albicans H42, Compound 1 in combination with ketoconazole", "result": 1.2, "unit": "µg/mL"}, {"measurement": "MIC", "setting": "Candida albicans; C. albicans B4, Compound 1 alone", "result": 20, "unit": "µg/mL"}, {"measurement": "MIC", "setting": "Candida albicans; C. albicans B5, Compound 1 alone", "result": 20, "unit": "µg/mL"}, {"measurement": "MIC", "setting": "Candida albicans; C. albicans H12, Compound 1 alone", "result": 20, "unit": "µg/mL"}, {"measurement": "MIC", "setting": "Candida albicans; C. albicans H29, Compound 1 alone", "result": 10, "unit": "µg/mL"}, {"measurement": "MIC", "setting": "Candida albicans; C. albicans H42, Compound 1 alone", "result": 20, "unit": "µg/mL"}, {"measurement": "synergistic activity", "setting": "Candida albicans; in combination with ketoconazole, C. albicans", "result": "confirms the synergistic activity"}, {"measurement": "LD50", "setting": "[2]", "result": "312 to 625", "unit": "mg/kg"}]}
{"smiles": "C=CCN(C)CCCCCCc1ccc(C(=O)c2ccc(Br)cc2)cc1", "note": "[Compound 24, 4-[6-(Allylmethylamino)hexyl]-4'-bromobenzophenone]", "values": [{"measurement": "IC50", "setting": "[1]", "result": 229, "unit": "nM"}, {"measurement": "LD50", "setting": "[2]", "result": "312 to 625", "unit": "mg/kg"}]}
{"smiles": "CN(C)CCCCCCCc1ccc(C(=O)c2ccc(C#N)cc2)cc1", "note": "[Compound 20]", "values": [{"measurement": "IC50", "setting": "[1]; [3]", "result": 746, "unit": "nM"}]}
{"smiles": "O=C(/C=C/c1ccccc1)c1ccc(CCCN2CCCC2)cc1", "note": "[Compound 12, (E)-3-phenyl-4'-[3-(1-pyrrolidinyl)propyl]acrylophenone]", "values": [{"measurement": "IC50", "setting": "[1]; [3]", "result": 783, "unit": "nM"}]}
{"smiles": "CN(C)CCCc1ccc(C(=O)/C=C/c2ccc(Cl)cc2)cc1", "note": "[Compound 6, (E)-3-(4-chlorophenyl)-4'-[3-(dimethylamino)propyl]acrylophenone]", "values": [{"measurement": "IC50", "setting": "[1]; [3]", "result": 3660, "unit": "nM"}]}
{"smiles": "C=CCN(C)CCCCCCCc1ccc(C(=O)c2ccc(C#N)cc2)cc1", "note": "[Compound 23, 4-[4'-[7-(Allylmethylamino)heptyl]benzoyl]benzonitrile]", "values": [{"measurement": "IC50", "setting": "[1]", "result": 160, "unit": "nM"}]}
